Data as given in ChEMBL document CHEMBL1201862, “PubChem BioAssay data set” (2004).
Active and inactive are the calls of the source.

Tests used:
Bcl-2-related protein A1 [1] = target: T1, Bcl-2-related protein A1 (Mus musculus, UniProt Q07440); test: Bfl-1 binding inhibitors, SAR follow-up, biochemical, fluorescence polarization (AID 1070)
T1 sequence (Q07440 whole entry): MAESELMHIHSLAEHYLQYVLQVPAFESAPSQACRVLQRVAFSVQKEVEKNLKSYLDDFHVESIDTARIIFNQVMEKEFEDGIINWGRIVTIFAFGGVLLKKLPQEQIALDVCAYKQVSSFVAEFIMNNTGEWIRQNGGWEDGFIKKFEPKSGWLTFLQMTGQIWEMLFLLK

Bcl-2-related protein A1 [2] = target: T1, Bcl-2-related protein A1; test: Bfl-1 inhibitors blocking BH3 peptide binding, confirmation, biochemical, TR-FRET, mouse Bfl-1 (AID 621);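 note: TR-FRET binding of GST-Bfl-1 to FITC-labelled Bid peptide via terbium antibody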
[3] = Luminescence Cell-Based Dose Response HTS to Identify Inhibitors of 5'UTR Stem-Loop Driven Prion Protein mRNA Translation in H4 Neuroglioblastoma Cells. [Related pubchem assays: 1827 (Project Summary), 1813 (Primary HTS)]; assay type: functional
[4] = inhibitors of SNCA 5'UTR-driven reporter translation, confirmation, H4 neuroglioma cells, luminescence (AID 1988); assay type: functional, cell-based
[5] = inhibitors of firefly luciferase expression or activity, dose response, H4 neuroglioma cells, luminescence (AID 1990); assay type: functional, cell-based
[6] = target: Sphingosine 1-phosphate receptor 2 (Homo sapiens, UniProt O95136); test: Dose Response Cell Based Assay for Antagonists of the S1P2 Receptor. [Related pubchem assays: 856, 736 ]; assay type: functional
Chain of Sphingosine 1-phosphate receptor 2 (O95136 whole entry): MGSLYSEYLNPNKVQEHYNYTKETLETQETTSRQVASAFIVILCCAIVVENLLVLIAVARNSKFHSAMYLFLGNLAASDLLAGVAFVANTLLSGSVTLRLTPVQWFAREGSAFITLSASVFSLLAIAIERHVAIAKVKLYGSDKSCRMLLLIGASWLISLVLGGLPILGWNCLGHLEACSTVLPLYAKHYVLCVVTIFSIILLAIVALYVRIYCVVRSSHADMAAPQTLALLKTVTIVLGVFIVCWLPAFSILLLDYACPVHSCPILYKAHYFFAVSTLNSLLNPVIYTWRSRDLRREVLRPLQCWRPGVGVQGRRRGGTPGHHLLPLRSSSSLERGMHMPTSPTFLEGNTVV

Ion channel NompC = Ion channel NompC (Danio rerio, UniProt Q7T1G6); test: Fluorescence counterscreen assay for TRPML3 agonists: dose response cell-based high-throughput screening assay to identify agonists of the transient receptor potential channel N1 (TRPN1). [Related pubchem assays: 1526, 1424, 1448 ]; assay type: functional
Chain of Ion channel NompC (Q7T1G6 whole entry): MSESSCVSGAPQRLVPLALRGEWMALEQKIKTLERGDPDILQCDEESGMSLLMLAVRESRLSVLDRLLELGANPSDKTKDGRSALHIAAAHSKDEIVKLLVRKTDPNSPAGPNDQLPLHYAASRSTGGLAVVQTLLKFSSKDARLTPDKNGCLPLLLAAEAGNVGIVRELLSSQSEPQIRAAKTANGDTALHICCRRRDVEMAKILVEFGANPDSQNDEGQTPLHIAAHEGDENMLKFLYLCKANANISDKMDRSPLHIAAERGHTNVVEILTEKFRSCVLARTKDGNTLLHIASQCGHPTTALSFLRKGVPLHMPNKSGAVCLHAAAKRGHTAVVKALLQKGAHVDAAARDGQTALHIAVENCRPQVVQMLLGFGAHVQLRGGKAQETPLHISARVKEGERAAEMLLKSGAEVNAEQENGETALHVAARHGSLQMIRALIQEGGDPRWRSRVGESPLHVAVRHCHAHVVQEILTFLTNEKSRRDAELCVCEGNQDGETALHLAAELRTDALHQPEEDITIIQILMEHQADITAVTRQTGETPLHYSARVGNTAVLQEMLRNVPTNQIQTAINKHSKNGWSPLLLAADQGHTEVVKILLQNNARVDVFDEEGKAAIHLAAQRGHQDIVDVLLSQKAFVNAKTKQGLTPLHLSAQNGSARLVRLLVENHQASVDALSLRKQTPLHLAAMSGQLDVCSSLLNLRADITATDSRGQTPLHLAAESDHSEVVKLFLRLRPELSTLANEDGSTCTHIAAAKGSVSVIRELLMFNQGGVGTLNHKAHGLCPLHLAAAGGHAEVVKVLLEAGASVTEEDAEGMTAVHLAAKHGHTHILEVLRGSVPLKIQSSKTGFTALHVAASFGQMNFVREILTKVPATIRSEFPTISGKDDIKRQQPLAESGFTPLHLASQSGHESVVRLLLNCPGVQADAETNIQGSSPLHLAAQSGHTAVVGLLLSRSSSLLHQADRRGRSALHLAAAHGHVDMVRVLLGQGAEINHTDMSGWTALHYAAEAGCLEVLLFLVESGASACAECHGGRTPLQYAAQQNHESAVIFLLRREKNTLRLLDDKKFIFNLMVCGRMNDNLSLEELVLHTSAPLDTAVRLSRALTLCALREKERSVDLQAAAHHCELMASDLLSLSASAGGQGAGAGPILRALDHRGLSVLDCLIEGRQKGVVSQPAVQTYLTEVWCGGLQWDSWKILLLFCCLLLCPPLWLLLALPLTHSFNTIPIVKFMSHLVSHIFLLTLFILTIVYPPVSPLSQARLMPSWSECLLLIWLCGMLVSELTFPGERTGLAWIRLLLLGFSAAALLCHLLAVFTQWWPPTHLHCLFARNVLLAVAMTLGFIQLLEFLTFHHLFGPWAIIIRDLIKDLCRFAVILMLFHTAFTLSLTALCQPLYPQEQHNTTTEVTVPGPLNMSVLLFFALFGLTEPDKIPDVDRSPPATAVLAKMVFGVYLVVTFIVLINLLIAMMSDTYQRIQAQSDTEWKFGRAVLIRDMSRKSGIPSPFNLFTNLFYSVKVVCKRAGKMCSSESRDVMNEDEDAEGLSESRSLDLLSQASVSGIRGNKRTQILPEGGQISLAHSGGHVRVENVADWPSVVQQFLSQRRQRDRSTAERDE

Mucolipin-3 = target: T2, Mucolipin-3 (Homo sapiens, UniProt Q8TDD5); test: Dose response cell-based high-throughput screening assay for agonists of the transient receptor potential channel ML3 (TRPML3). [Related pubchem assays: 1526, 1424, 1448 ]; assay type: functional
T2 sequence (Q8TDD5 whole entry): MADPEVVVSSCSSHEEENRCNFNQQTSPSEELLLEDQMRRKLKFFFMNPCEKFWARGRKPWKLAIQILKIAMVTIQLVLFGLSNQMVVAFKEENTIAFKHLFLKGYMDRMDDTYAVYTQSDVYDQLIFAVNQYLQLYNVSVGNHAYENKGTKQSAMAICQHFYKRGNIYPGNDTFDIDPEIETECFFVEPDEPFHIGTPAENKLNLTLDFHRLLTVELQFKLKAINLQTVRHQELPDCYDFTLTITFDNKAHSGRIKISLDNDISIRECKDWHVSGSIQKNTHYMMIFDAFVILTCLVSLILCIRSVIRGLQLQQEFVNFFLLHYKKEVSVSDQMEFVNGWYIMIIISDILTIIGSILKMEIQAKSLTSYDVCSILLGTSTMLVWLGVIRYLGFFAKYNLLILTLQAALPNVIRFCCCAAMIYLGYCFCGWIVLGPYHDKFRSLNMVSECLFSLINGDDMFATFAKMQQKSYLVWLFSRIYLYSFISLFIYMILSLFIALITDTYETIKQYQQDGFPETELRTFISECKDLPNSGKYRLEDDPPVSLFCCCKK

BJ [7] = test: cytotoxicity toward BJ-TERT-LT-ST fibroblasts, dose response, cell-based, RAS-independent, luminescence (AID 1935); assay type: functional; details: Homo sapiens;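 note: BJ fibroblasts immortalized with TERT plus LT and ST oncogenes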
BJ [8] = test: cytotoxicity toward BJ-TERT fibroblasts, dose response, cell-based, RAS-independent, luminescence (AID 1933); assay type: functional; details: Homo sapiens
[9] = target: T3, Histone-lysine N-methyltransferase NSD2 (Homo sapiens, UniProt O96028); assay type: biochemical
T3 sequence (O96028 whole entry): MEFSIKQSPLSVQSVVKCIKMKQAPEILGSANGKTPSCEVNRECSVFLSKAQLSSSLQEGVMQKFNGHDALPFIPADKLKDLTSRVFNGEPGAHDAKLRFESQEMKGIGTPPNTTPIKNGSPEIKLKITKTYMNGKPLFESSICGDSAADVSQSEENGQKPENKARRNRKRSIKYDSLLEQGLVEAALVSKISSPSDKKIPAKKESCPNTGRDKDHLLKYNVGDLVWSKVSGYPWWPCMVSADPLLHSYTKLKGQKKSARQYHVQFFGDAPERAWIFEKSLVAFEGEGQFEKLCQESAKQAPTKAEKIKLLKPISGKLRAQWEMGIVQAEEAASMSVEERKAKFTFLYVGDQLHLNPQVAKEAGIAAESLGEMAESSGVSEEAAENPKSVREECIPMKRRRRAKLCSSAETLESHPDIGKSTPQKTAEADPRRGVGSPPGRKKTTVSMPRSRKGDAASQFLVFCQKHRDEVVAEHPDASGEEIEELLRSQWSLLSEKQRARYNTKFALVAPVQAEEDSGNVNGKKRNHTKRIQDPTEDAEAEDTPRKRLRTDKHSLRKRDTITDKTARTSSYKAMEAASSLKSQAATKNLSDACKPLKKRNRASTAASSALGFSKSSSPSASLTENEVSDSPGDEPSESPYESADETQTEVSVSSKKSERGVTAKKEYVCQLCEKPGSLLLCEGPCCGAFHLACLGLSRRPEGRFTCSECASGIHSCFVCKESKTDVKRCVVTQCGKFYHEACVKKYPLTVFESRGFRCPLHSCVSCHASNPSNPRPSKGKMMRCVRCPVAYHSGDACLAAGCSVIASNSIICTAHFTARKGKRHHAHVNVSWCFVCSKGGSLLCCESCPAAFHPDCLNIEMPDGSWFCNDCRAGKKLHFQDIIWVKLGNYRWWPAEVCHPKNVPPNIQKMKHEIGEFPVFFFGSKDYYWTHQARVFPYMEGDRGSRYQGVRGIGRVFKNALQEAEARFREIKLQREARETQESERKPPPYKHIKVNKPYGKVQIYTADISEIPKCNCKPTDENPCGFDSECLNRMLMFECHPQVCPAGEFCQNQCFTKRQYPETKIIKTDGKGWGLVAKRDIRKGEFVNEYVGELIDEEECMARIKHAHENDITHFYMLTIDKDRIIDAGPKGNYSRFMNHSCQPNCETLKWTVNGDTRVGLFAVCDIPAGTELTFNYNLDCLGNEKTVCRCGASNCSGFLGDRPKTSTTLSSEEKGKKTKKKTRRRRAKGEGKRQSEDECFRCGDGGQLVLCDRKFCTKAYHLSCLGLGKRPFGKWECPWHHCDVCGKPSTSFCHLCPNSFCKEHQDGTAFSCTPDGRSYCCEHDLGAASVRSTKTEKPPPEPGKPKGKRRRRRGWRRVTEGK

[10] = growth suppression of beta-catenin-knockout colon cells, dose response, cell-based, HCT116, human colon tumor (AID 1045); assay type: functional;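 note: HCT116 colon tumor cells with beta catenin knocked out; cells exposed to compound for 60 hours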
[11] = cytotoxicity toward DRD oncogenic fibroblasts, dose response, cell-based, non-viral oncogenic, luminescence (AID 1934); assay type: functional; details: Homo sapiens
BJ [12] = test: cells; assay type: functional, cell-based; details: Homo sapiens
[13] = growth suppression of PTEN-null colon cells, dose response, cell-based, HCT116 PTEN knockout (AID 1047); assay type: functional;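 note: HCT116 colon tumor cells with PTEN knocked out; cells exposed to compound for 60 hours before readout; potency for loss of cell viability measured by luminescence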
[14] = target: T4, Corticotropin-releasing factor receptor 2/Corticotropin-releasing factor-binding protein (Homo sapiens, UniProt P24387+Q13324); test: activators of CRF receptor 2 with binding protein – uHTS hits, confirmation (AID 602473); assay type: functional; details: read-out: EC50_Mean
T4 sequence (Q13324 whole entry): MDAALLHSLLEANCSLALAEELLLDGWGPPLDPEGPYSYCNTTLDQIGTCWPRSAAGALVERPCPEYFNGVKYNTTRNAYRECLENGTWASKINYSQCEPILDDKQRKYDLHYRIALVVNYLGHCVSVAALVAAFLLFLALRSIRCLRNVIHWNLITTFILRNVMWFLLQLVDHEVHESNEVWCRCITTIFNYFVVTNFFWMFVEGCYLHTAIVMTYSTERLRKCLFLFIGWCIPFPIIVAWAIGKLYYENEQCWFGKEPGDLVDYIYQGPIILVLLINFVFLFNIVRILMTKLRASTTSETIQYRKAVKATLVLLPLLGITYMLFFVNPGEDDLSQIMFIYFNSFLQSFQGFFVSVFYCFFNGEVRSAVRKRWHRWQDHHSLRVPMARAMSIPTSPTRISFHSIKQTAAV
T4 sequence (P24387 whole entry): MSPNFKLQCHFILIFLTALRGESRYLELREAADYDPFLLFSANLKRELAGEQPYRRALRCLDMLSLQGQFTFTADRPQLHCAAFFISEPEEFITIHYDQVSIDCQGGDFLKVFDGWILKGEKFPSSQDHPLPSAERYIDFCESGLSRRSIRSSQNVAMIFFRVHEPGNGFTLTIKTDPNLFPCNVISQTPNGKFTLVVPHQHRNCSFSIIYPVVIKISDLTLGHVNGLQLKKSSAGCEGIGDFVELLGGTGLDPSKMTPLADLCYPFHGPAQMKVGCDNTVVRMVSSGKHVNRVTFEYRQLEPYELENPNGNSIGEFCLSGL

[15] = test system: Streptococcus sp. 'group A'; test: growth inhibition of control SK(-) GAS strain, dose response, counter-screen for streptokinase expression inhibitor project, luminescence, kanamycin, BacTiterGlo, confirmation (AID 1900); assay type: functional, organism-based
Streptococcus = test: Group A Streptococcus viability loss, dose response, counter-screen for streptokinase expression inhibitor project, luminescence, BacTiterGlo (AID 1915); assay type: functional, organism-based;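 note: potency for reduction of bacterial viability or growth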
BJ [16] = test: cytotoxicity toward Ras-transformed BJeLR fibroblasts, dose response, cell-based, alamar blue fluorescence, cherrypicked samples (AID 2631); assay type: functional; details: Homo sapiens;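 note: confirmatory dose-response assay in RAS-dependent BJ fibroblasts engineered with TERT, LT and ST, with cytotoxicity read by fluorescence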

With Cc1cccc(N2CCN(C3=C(Cl)C(=O)N(c4ccc(Cl)c(Cl)c4)C3=O)CC2)c1 the IC50 (Bcl-2-related protein A1 [1]) was > 100 µM (not active) and the IC50 (Bcl-2-related protein A1 [2]) was > 100 µM (not active).

In the case of O=C(c1cc(NC(=O)C23CC4CC(CC(C4)C2)C3)cc(NC(=O)C23CC4CC(CC(C4)C2)C3)c1)N1CCCCC1, the EC50 [3] is reported as 15.7 µM (active), the EC50 [4] is reported as 12.2 µM (inconclusive) and the EC50 [5] is reported as 17.1 µM (active). For the same compound, the IC50 [6] was 0.977 µM (active).

With Clc1ccc(-n2nnc(-c3cnc4ccccc4c3)n2)cn1 the IC50 (Bcl-2-related protein A1 [1]) was > 100 µM (not active) and the IC50 (Bcl-2-related protein A1 [2]) was > 100 µM (not active).

With CN(CC(=O)ONC(=N)c1cccc([N+](=O)[O-])c1)S(=O)(=O)c1ccccc1 the EC50 (Ion channel NompC) was > 29.9 µM (not active) and the EC50 (Mucolipin-3) was 12.4 µM (not active).

In the case of CCN1/C(=C\C=C\C2=[N+](CC)c3ccccc3C2(C)C)C(C)(C)c2ccccc21.[O-][Cl+3]([O-])([O-])[O-], the EC50 (BJ [7]) is reported as 2.01 µM (active), the EC50 (BJ [8]) is reported as 0.395 µM (inconclusive) and the AC50 [9] is reported as > 20 µM (inactive). The EC50 [10] was < 0.059 µM (active), the EC50 [11] was 0.903 µM (active) and the EC50 (BJ [12]) was 0.664 µM (active). For the same compound, the EC50 [13] was < 0.059 µM (active), the EC50 [14] was 3.74 µM (active) and the EC50 [15] was 5.96 µM (active). The EC50 (Streptococcus) was 19.5 µM (active), the EC50 (BJ [16]) was 0.273 µM (active) and the IC50 [6] was 0.587 µM (active).
